pKi: −log10 of the molar value.
Experiments:
[1] = cited from earlier work
D2R = details: similar to aripiprazole; cited from earlier work
5-HT7 receptor = 5-HT7 receptor (Homo sapiens, UniProt P34969)
5-HT1A receptor = 5-HT1A receptor (Homo sapiens, UniProt P08908)
D1 receptor = D1 receptor (Homo sapiens, UniProt P21728); assay: biochemical
Sequence of D1 receptor (P21728 whole entry): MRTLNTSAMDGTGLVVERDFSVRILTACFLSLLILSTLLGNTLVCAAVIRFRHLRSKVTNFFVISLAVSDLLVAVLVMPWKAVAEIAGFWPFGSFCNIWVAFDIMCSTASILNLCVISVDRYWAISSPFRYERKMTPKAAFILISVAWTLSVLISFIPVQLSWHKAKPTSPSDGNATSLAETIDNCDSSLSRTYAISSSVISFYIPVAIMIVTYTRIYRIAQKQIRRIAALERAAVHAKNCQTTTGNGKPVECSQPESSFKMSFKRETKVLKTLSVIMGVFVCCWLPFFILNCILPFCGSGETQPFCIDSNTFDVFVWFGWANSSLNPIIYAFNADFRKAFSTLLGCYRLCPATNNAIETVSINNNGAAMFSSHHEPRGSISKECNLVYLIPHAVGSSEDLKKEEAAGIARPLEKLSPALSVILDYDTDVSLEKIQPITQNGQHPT

Sequence of 5-HT7 receptor (P34969 whole entry): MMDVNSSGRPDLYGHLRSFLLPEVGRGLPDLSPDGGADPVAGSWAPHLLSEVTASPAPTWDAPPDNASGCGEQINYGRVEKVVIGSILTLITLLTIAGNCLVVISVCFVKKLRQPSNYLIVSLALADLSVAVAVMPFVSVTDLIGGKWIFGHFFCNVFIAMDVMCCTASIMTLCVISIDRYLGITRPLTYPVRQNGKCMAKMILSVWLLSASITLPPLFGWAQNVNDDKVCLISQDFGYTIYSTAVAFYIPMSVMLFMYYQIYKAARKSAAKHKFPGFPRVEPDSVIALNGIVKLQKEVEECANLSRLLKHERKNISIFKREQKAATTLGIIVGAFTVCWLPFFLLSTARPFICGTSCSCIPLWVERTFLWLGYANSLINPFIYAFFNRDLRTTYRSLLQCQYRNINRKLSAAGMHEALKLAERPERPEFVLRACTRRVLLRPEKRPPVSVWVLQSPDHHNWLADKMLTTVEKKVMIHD
Sequence of 5-HT1A receptor (P08908 whole entry): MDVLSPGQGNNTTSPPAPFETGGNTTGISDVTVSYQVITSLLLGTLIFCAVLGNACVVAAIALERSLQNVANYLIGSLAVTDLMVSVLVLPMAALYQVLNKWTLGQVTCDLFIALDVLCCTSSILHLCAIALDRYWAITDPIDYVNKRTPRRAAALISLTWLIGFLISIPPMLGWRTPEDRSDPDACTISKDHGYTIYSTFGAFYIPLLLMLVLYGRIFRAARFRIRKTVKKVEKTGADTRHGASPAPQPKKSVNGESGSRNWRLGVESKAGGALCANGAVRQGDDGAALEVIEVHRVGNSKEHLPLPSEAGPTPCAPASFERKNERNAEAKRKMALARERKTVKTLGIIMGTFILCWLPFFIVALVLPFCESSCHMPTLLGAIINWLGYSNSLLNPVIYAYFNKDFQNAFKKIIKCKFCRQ

Fc1ccc(CCCCN2CCN(c3ccccn3)CC2)cc1 [Compound 5, 1-(4-(4-fluorophenyl)butyl)-4-(pyridin-2-yl)piperazine]
blood brain barrier (BBB) permeability [1]: high
signaling at the D2R (D2R): activates both G-protein and β-arrestin signaling

Cc1ccc(N2CCN(CCCCc3ccc(F)cc3)CC2)nc1 [Compound 9, 1-(4-(4-fluorophenyl)butyl)-4-(5-methylpyridin-2-yl)piperazine]
mean pKi ± SEM 5-HT7 (5-HT7 receptor): 7.2 ± 0.1

O=C1c2ccc(F)cc2CC1CCN1CCCN(c2ccccn2)CC1 (stereo not drawn) [Compound 14]
mean pKi ± SEM 5-HT1A (5-HT1A receptor): 6.1 ± 0.1

Fc1ccc(CCCCN2CCN(c3cccnc3)CC2)cc1.O=C(O)C(=O)O [Compound 21, 1-(4-(4-fluorophenyl)butyl)-4-(pyridin-3-yl)piperazine oxalate]
mean pKi ± SEM 5-HT7 (5-HT7 receptor): 6.63 ± 0.09
pKi (D1 receptor): < 5.70

From article PMC8670397 (Bioorganic & medicinal chemistry, 2020)
